From patent publication US20100093538A1, “Pseudomonas Bacterium” (priority 2008, published 2010) come the findings set out here.

For assay [1], the system named is R. solani. Type of assay: cell-based. As to conditions: bioautography, Si gel scraped into agar plates inoculated with R. solani.
Assay [2] relates to germinating lettuce seeds. As to the kind of experiment: Lettuce seed bioassay of EtOAC extracts of cell-free culture filtrates. Conditions: IAA at 1 μg/ml.

As for `CC(=O)c1c(O)cc(O)c(C(C)=O)c1O` [DAPG, 2,4-diacetylphloroglucinol], the Fungal inhibition result in assay [1] is on record as “Rhizoctonia”.
Consider `O=C(O)Cc1c[nH]c2ccccc12` [IAA, indole-3-acetic acid], for which the “Effect on germination of lettuce seeds” value in assay [2] is “inhibits the germination of lettuce seeds”.
As for `O=[N+]([O-])c1c(Cl)cccc1-c1c[nH]cc1Cl` [PRN, 3-chloro-4-[2′ nitro-3′-chlorophenyl]pyrrole], the Fungal inhibition entry in assay [1] was “Rhizoctonia”.
